From ChEMBL document CHEMBL2331288 (Bioorg Med Chem Lett, 2013)

Legend:
[1] = target: 72 kDa type IV collagenase (Homo sapiens, UniProt P08253)
Description: Inhibition of human recombinant MMP2 using succinylated gelatin as substrate incubated for 30 mins prior to substrate addition measured after 60 mins

Interstitial collagenase = target: T1, Interstitial collagenase (Homo sapiens, UniProt P03956)
T1 sequence (P03956 whole entry): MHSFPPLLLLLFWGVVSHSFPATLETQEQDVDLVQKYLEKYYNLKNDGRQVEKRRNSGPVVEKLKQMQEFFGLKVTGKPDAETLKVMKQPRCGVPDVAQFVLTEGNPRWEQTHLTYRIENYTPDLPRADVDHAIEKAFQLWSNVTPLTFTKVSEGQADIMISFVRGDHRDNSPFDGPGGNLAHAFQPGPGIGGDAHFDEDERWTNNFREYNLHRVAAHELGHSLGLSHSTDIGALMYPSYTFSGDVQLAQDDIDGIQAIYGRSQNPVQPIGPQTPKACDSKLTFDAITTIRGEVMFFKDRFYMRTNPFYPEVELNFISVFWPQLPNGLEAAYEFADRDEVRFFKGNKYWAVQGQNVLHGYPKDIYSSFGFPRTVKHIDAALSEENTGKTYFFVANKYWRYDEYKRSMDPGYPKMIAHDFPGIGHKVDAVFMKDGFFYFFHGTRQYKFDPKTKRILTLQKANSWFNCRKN
Description: Inhibition of human recombinant MMP1 using succinylated gelatin as substrate incubated for 30 mins prior to substrate addition measured after 60 mins

Chain of 72 kDa type IV collagenase (P08253 whole entry): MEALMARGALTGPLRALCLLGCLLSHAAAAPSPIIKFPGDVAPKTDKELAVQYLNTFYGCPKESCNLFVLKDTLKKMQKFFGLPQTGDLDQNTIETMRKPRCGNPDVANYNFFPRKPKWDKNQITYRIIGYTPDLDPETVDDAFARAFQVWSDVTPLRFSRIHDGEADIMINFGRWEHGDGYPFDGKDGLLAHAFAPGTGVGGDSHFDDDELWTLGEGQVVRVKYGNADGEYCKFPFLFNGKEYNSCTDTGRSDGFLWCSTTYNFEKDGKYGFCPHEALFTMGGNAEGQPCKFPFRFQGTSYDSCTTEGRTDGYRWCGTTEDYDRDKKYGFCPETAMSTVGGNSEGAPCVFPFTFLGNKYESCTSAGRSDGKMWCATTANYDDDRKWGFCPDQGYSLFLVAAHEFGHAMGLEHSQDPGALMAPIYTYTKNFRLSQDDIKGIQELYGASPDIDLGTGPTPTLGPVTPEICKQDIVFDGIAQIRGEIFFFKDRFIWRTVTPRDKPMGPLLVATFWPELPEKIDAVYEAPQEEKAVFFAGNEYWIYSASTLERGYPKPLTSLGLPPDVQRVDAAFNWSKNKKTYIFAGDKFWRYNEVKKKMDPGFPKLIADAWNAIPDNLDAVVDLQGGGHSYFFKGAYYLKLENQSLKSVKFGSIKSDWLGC

Row | SMILES | IC50 [1] [nM] | IC50 (Interstitial collagenase) [nM]
1 | O=C(/C=C/c1ccc(O)c(O)c1)Nc1ccc(F)cc1 | 8.31 | 4370
2 | O=C(/C=C/c1ccc(O)c(O)c1)Nc1ccccc1Cl | 9.11 | 3710
3 | O=C(/C=C/c1ccc(O)c(O)c1)Nc1cccc(F)c1 | 1820 | 4300
4 | O=C(/C=C/c1ccc(O)c(O)c1)Nc1cccc(Cl)c1 | 1870 | 3810
5 | Cc1ccc(NC(=O)/C=C/c2ccc(O)c(O)c2)cc1 | 3.55 | 4830
6 | O=C(/C=C/c1ccc(O)c(O)c1)Nc1ccc(Cl)cc1 | 8.95 | 3960
7 | Cc1ccccc1NC(=O)/C=C/c1ccc(O)c(O)c1 | 5.97 | 4710
8 | O=C(/C=C/c1ccc(O)c(O)c1)Nc1ccccc1F | 8.92 | 4250
9 | COc1ccccc1NC(=O)/C=C/c1ccc(O)c(O)c1 | 5.27 | 5250
10 | O=C(/C=C/c1ccccc1)NCCc1ccccc1 | 9.13 | 3250
11 | O=C(/C=C/c1ccc(O)cc1)NCc1ccccc1 | 8.32 | 3140
12 | O=C(/C=C/c1cccc(O)c1)NCc1ccccc1 | 8.44 | 3600
13 | O=C(/C=C/c1cccc(O)c1)NCCc1ccccc1 | 8.46 | 3600
14 | O=C(/C=C/c1cccc(O)c1)Nc1ccccc1O | 5.57 | 5210
15 | Cc1ccccc1NC(=O)/C=C/c1cccc(O)c1 | 5.73 | 4740
16 | O=C(/C=C/c1cccc(O)c1)Nc1ccccc1F | 9.09 | 4120
17 | O=C(/C=C/c1cccc(O)c1)Nc1ccccc1Cl | 9.41 | 3260
18 | O=C(/C=C/c1ccc(O)c(O)c1)Nc1ccccc1 | 8.05 | 3240
19 | O=C(/C=C/c1ccc(O)cc1)NCCc1ccccc1 | 8.37 | 3220
20 | O=C(/C=C/c1ccc(O)c(O)c1)Nc1ccccc1O | 5.09 | 5620
21 | O=C(/C=C/c1ccc(O)c(O)c1)NCc1ccccc1 | 8.22 | 3250
22 | O=C(/C=C/c1ccc(O)c(O)c1)NCCc1ccccc1 [CAFFEIC ACID PHENETHYL AMIDE] | 8.2 | 3300
23 | O=C(O)/C=C/c1ccc(O)c(O)c1 [CAFFEIC ACID] | 24.3 | 239
24 | Cc1cccc(NC(=O)/C=C/c2ccccc2)c1 [N-M-TOLYLCINNAMAMIDE] | 1950 | 4590
25 | Cc1ccccc1NC(=O)/C=C/c1ccccc1 [N-O-TOLYLCINNAMAMIDE] | 6.41 | 4520
26 | Cc1ccc(NC(=O)/C=C/c2ccccc2)cc1 [N-P-TOLYLCINNAMAMIDE] | 5.46 | 4670

Second part, the molecule after the results:

Row | IC50 [1] [nM] | IC50 (Interstitial collagenase) [nM] | SMILES
27 | 1680 | 5290 | COc1cccc(NC(=O)/C=C/c2ccc(O)c(O)c2)c1
28 | 3.42 | 5320 | COc1ccc(NC(=O)/C=C/c2ccc(O)c(O)c2)cc1
29 | 1720 | 4800 | Cc1cccc(NC(=O)/C=C/c2ccc(O)c(O)c2)c1
30 | 5.28 | 5400 | O=C(/C=C/c1ccccc1)Nc1ccc(O)cc1
31 | 9.11 | 3500 | O=C(/C=C/c1cccc(O)c1)Nc1ccc(Cl)cc1
32 | 1760 | 5220 | COc1cccc(NC(=O)/C=C/c2ccc(O)cc2)c1
33 | 4.09 | 5290 | COc1ccc(NC(=O)/C=C/c2ccc(O)cc2)cc1
34 | 1750 | 4880 | Cc1cccc(NC(=O)/C=C/c2ccc(O)cc2)c1
35 | 9.01 | 4230 | O=C(/C=C/c1ccc(O)cc1)Nc1ccccc1F
36 | 1580 | 4430 | O=C(/C=C/c1ccc(O)cc1)Nc1cccc(F)c1
37 | 1670 | 5160 | COc1cccc(NC(=O)/C=C/c2cccc(O)c2)c1
38 | 1870 | 4210 | O=C(/C=C/c1cccc(O)c1)Nc1cccc(F)c1
39 | 8.59 | 4390 | O=C(/C=C/c1cccc(O)c1)Nc1ccc(F)cc1
40 | 1590 | 5770 | O=C(/C=C/c1ccc(O)c(O)c1)Nc1cccc(O)c1
41 | 3.28 | 5830 | O=C(/C=C/c1ccc(O)c(O)c1)Nc1ccc(O)cc1
42 | 8.41 | 3400 | O=C(/C=C/c1cccc(O)c1)Nc1ccccc1 [3-HYDROXY-CINNAMANILIDE]
